Read-outs that look alike come from different tables or passages of the source. Values belong to the compound of their own block, whether it stands above or below them.
Experiments:
Format in all cases: biochemical
[1] = biological target: CDK2/CCNE1 (Homo sapiens, UniProt P24941); assay: CDK2 homogeneous time-resolved fluorescence (HTRF) kinase assay; settings: CDK2/CCNE
Method in brief: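 An HTRF format measures CDK2/CCNE1 (3 nM) phosphorylating a 4E-BP1 Thr37/46 peptide at high (1 mM) ATP. Reactions run one hour at 23 °C, then EDTA-quenched and probed with Eu-labelled phospho-specific antibody.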

[2] = biological target: CDK1/CCNB1 (Homo sapiens, UniProt P06493); assay: CDK1 homogeneous time-resolved fluorescence (HTRF) kinase assay; settings: CDK1/CCNB
Chain of CDK1/CCNB1 (P06493 whole entry): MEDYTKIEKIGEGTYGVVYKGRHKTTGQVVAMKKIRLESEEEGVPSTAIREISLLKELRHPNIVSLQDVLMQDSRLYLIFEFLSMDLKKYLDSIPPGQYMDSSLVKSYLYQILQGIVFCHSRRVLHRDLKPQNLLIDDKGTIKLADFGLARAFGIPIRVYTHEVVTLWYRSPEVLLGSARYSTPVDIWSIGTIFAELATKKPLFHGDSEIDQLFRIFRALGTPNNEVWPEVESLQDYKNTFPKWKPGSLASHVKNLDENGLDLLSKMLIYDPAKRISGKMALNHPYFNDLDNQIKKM
Chain of CDK1/CCNB1 (P14635 whole entry partner): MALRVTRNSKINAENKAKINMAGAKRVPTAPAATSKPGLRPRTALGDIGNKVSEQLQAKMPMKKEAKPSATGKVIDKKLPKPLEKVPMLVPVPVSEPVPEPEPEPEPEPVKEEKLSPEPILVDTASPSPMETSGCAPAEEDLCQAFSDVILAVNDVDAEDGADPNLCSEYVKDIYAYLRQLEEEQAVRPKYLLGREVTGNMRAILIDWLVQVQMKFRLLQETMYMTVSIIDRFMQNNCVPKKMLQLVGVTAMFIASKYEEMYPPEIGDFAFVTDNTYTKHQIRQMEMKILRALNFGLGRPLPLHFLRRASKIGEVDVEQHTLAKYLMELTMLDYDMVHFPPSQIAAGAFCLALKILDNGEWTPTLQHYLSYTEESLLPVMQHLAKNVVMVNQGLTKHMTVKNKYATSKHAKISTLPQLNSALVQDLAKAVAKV
Method in brief: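 CDK1/CCNB1 0.5 nM + cpd, 20 min 23 °C; add 1 mM ATP, 50 nM ULight-4E-BP1 peptide, 60 min 23 °C; stop 10 mM EDTA; 2 nM Eu-Ab, 60 min; HTRF 665 nm. 11-pt half-log, top 10 μM typical; IC50.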

[3] = biological target: CDK4/CCND3 (Homo sapiens, UniProt P11802); assay: CDK4 homogeneous time-resolved fluorescence (HTRF) kinase assay; settings: CDK4/CCND
Chain of CDK4/CCND3 (P11802 whole entry): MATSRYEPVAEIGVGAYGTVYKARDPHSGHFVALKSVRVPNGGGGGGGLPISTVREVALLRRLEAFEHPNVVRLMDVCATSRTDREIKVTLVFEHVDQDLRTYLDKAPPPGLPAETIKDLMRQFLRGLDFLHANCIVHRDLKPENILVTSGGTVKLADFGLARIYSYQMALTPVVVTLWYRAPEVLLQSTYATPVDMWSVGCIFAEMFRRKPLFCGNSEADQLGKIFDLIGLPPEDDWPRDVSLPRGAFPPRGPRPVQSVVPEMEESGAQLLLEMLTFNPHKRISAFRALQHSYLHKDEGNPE
Chain of CDK4/CCND3 (P30281 whole entry partner): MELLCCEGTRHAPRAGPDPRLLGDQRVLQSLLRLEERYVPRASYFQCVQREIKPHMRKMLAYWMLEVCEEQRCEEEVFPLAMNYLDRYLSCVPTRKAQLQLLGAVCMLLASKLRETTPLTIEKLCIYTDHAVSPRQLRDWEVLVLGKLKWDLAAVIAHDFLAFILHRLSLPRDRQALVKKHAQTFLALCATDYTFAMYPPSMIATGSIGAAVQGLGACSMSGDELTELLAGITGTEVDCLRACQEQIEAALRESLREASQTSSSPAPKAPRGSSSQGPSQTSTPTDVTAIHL
Method in brief: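 IC50 values were derived from 11-point half-log dilutions, usually starting at 10 μM. Compound was first held for 20 min at 23 °C with 1.5 nM CDK4/CCND3. 1 mM ATP and 50 nM ULight-eIF4E-BP1 (Thr37/46) substrate were then added for 60 min, and the TR-FRET 665 nm signal was measured after EDTA stop and Eu-anti-phospho-4E-BP1 detection.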

[4] = biological target: CDK6/CCND1 (Homo sapiens, UniProt Q00534); assay: CDK6 homogeneous time-resolved fluorescence (HTRF) kinase assay; settings: CDK6/CCND
Chain of CDK6/CCND1 (Q00534 whole entry): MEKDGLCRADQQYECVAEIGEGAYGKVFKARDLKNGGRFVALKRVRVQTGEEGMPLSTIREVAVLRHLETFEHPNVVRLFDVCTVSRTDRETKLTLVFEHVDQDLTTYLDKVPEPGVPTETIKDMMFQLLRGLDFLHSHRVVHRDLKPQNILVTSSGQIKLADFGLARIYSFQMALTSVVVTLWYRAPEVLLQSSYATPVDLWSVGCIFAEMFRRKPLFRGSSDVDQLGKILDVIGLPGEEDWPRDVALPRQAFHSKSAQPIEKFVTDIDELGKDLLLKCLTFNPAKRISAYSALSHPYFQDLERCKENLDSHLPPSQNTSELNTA
Chain of CDK6/CCND1 (P24385 whole entry partner): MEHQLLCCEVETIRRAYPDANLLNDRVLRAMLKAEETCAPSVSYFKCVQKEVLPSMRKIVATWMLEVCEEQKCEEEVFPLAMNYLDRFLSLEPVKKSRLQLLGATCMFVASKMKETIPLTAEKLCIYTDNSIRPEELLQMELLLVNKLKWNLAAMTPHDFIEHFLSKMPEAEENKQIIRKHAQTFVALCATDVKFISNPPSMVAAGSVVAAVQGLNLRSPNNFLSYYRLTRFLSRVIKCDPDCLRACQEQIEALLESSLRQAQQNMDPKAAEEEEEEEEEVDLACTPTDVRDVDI
Method in brief: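 Recombinant CDK6/CCND1 (1 nM final) was preincubated with compound for 20 min at 23 °C in HEPES buffer with MgCl2, EGTA, DTT and Tween 20. Kinase reaction then ran 60 min at 23 °C with 1 mM ATP and 50 nM ULight-4E-BP1 (Thr37/46) peptide, and was stopped with EDTA.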

[5] = <25 nM, read-out: CDK2/CCNE IC50, <25 nM
[6] = >250 nM, read-out: CDK1/CCNB IC50 >250 nM
[7] = >250 nM, read-out: CDK4/CCND IC50, >250 nM
[8] = >250 nM, 1 mM ATP, read-out: CDK6/CCND IC50, >250 nM
[9] = <25 nM, read-out: CDK2/CCNE IC50 <25 nM
[10] = >250 nM marked x, read-out: CDK1/CCNB IC50 >250 nM
[11] = 25-250 nM marked x, read-out: CDK4/CCND IC50 25-250 nM
[12] = x = IC50 <25 nM, read-out: CDK2/CCNE IC50 (<25 nM)
[13] = x = IC50 >250 nM, read-out: CDK1/CCNB IC50 (>250 nM column)
[14] = x = IC50 >250 nM, read-out: CDK4/CCND IC50 (>250 nM column)
[15] = x = IC50 >250 nM, read-out: CDK6/CCND IC50 (>250 nM column)
[16] = x = IC50 25-250 nM, read-out: CDK1/CCNB IC50 (25-250 nM)
[17] = x = IC50 25-250 nM, read-out: CDK4/CCND IC50 (25-250 nM)
[18] = x = IC50 25-250 nM, read-out: CDK6/CCND IC50 (25-250 nM)
[19] = x = IC50 25-250 nM, read-out: CDK2/CCNE IC50 (25-250 nM)
[20] = 25-250 nM, 1 mM ATP, read-out: CDK6/CCND IC50, 25-250 nM
[21] = 25-250 nM marked x, read-out: CDK2/CCNE IC50 25-250 nM
[22] = <25 nM, read-out: CDK6/CCND IC50 <25 nM
[23] = 25-250 nM, read-out: CDK1/CCNB IC50, 25-250 nM
[24] = 25-250 nM, read-out: CDK4/CCND IC50, 25-250 nM

IC50 [1, 5]: < 25 nM
IC50 [2, 6]: > 250 nM
IC50 [3, 7]: > 250 nM
IC50 [4, 8]: > 250 nM
Structure (SMILES): COc1cc(N2CCOCC2)nc(NS(=O)(=O)c2ccc(Nc3cc4c(-c5ccc6c(cnn6CC(O)(C(F)(F)F)C(F)(F)F)c5C)nccc4cn3)cc2)n1 [Ex 707, N-(4-methoxy-6-morpholinopyrimidin-2-yl)-4-((5-(4-methyl-1-(3,3,3-trifluoro-2-hydroxy-2-(trifluoromethyl)propyl)-1H-indazol-5-yl)-2,6-naphthyridin-3-yl)amino)benzenesulfonamide]

IC50 [1, 9]: < 25 nM
IC50 [2, 10]: > 250 nM
IC50 [3, 11]: 25 to 250 nM
IC50 ([4]; 25-250 nM marked x, read-out: CDK6/CCND IC50 25-250 nM): 25 to 250 nM
Structure (SMILES): Cc1c(-c2nccc3cnc(Nc4ccc(S(C)(=O)=O)cc4)cc23)ccc2[nH]ncc12 [Ex 148, 5-(4-methyl-1H-indazol-5-yl)-N-(4-(methylsulfonyl)phenyl)-2,6-naphthyridin-3-amine]

IC50 [1, 12]: < 25 nM
IC50 [2, 13]: > 250 nM
IC50 [3, 14]: > 250 nM
IC50 [4, 15]: > 250 nM
Structure (SMILES): Nc1ncccc1C#Cc1nccc2cnc(Nc3ccc(S(N)(=O)=O)cc3F)cc12 [Ex 466, 4-((5-((2-aminopyridin-3-yl)ethynyl)-2,6-naphthyridin-3-yl)amino)-3-fluorobenzenesulfonamide]

IC50 [1, 12]: < 25 nM
IC50 [2, 16]: 25 to 250 nM
IC50 [3, 17]: 25 to 250 nM
IC50 [4, 18]: 25 to 250 nM
Structure (SMILES): N=S(=O)(c1ccc(Nc2cc3c(C#Cc4ccc5c(c4)NC(=O)C54CCC4)nccc3cn2)cc1)C1CCC1 (single isomer, unassigned) [Ex 363, 6'-((7-((4-(cyclobutanesulfonimidoyl)phenyl)amino)-2,6-naphthyridin-1-yl)ethynyl)spiro[cyclobutane-1,3'-indolin]-2'-one]

IC50 [1, 19]: 25 to 250 nM
IC50 [2, 13]: > 250 nM
IC50 [3, 14]: > 250 nM
IC50 [4, 15]: > 250 nM
Structure (SMILES): Cc1c(C#Cc2nccc3cnc(Nc4ccc(S(C)(=O)=O)cc4)cc23)ccnc1Cl [Ex 500, 5-((2-chloro-3-methylpyridin-4-yl)ethynyl)-N-(4-(methylsulfonyl)phenyl)-2,6-naphthyridin-3-amine]

IC50 [1, 5]: < 25 nM
IC50 [2, 6]: > 250 nM
IC50 [3, 7]: > 250 nM
IC50 [4, 20]: 25 to 250 nM
Structure (SMILES): COc1ccnc(NS(=O)(=O)c2ccc(Nc3cc4c(-c5ccc6c(cnn6CC(C)(C)O)c5C)nccc4cn3)cc2)n1 [Ex 897, 4-((5-(1-(2-hydroxy-2-methylpropyl)-4-methyl-1H-indazol-5-yl)-2,6-naphthyridin-3-yl)amino)-N-(4-methoxypyrimidin-2-yl)benzenesulfonamide]

IC50 [1, 12]: < 25 nM
IC50 [2, 13]: > 250 nM
IC50 [3, 14]: > 250 nM
IC50 [4, 15]: > 250 nM
Structure (SMILES): CCC1(CC)C(=O)Nc2cc(C#Cc3nccc4cnc(Nc5ccc(S(=O)(=O)C(C)C)cc5C)cc34)ccc21 [Ex 369, 3,3-diethyl-6-((7-((4-(isopropylsulfonyl)-2-methylphenyl)amino)-2,6-naphthyridin-1-yl)ethynyl)indolin-2-one]

IC50 [1, 12]: < 25 nM
IC50 [2, 16]: 25 to 250 nM
IC50 [3, 17]: 25 to 250 nM
IC50 [4, 15]: > 250 nM
Structure (SMILES): CC1(C)C(=O)Nc2cc(C#Cc3nccc4cnc(Nc5ccc(S(C)(=O)=O)cc5)cc34)c(F)cc21 [Example 446, 5-fluoro-3,3-dimethyl-6-((7-((4-(methylsulfonyl)phenyl)amino)-2,6-naphthyridin-1-yl)ethynyl)indolin-2-one]

IC50 [1, 21]: 25 to 250 nM
IC50 [2, 10]: > 250 nM
IC50 [3, 11]: 25 to 250 nM
IC50 [4, 22]: < 25 nM
Structure (SMILES): COC1CCN(c2nccc3cnc(NC4CCN(S(C)(=O)=O)CC4)cc23)CC1 [Ex 50, 5-(4-methoxypiperidin-1-yl)-N-(1-(methylsulfonyl)piperidin-4-yl)-2,6-naphthyridin-3-amine]

IC50 [1, 21]: 25 to 250 nM
IC50 [2, 10]: > 250 nM
IC50 [3, 11]: 25 to 250 nM
IC50 ([4]; >250 nM marked x, read-out: CDK6/CCND IC50 >250 nM): > 250 nM
Structure (SMILES): CS(=O)(=O)c1ccc(Nc2cc3c(ccnc3[C@H]3CC[C@H](C(N)=O)CC3)cn2)cc1 [Ex 223, (1r,4r)-4-(7-((4-(methylsulfonyl)phenyl)amino)-2,6-naphthyridin-1-yl)cyclohexane-1-carboxamide]

IC50 [1, 5]: < 25 nM
IC50 [2, 23]: 25 to 250 nM
IC50 [3, 24]: 25 to 250 nM
IC50 [4, 20]: 25 to 250 nM
Structure (SMILES): Cc1ccc(S(=O)(=O)Nc2ccc(Nc3cc4c(-c5ccc6c(cnn6CC(C)(C)O)c5C)nccc4cn3)cc2)cn1 [Ex 823, N-(4-((5-(1-(2-hydroxy-2-methylpropyl)-4-methyl-1H-indazol-5-yl)-2,6-naphthyridin-3-yl)amino)phenyl)-6-methylpyridine-3-sulfonamide]

IC50 [1, 9]: < 25 nM
IC50 [2, 10]: > 250 nM
IC50 [3, 11]: 25 to 250 nM
IC50 [4, 22]: < 25 nM
Structure (SMILES): Oc1cccc(Nc2cc3c(C4=CCCCC4)nccc3cn2)c1 [Ex 100, 3-((5-(cyclohex-1-en-1-yl)-2,6-naphthyridin-3-yl)amino)phenol]

IC50 [1, 12]: < 25 nM
IC50 [2, 16]: 25 to 250 nM
IC50 [3, 14]: > 250 nM
IC50 [4, 15]: > 250 nM
Structure (SMILES): CC1(C)C(=O)Nc2cc(C#Cc3nccc4cnc(Nc5ccc(S(=O)(=O)NC6CCC6)cc5)cc34)ccc21 [Ex 457, N-cyclobutyl-4-((5-((3,3-dimethyl-2-oxoindolin-6-yl)ethynyl)-2,6-naphthyridin-3-yl)amino)benzenesulfonamide]

IC50 [1, 5]: < 25 nM
IC50 [2, 6]: > 250 nM
IC50 [3, 7]: > 250 nM
IC50 [4, 8]: > 250 nM
Structure (SMILES): Cc1c(-c2nccc3cnc(Nc4ccc(S(=O)(=O)Nc5ncc(N6CCOCC6)cn5)cc4)cc23)ccc2c1cnn2CC(C)(C)O [Ex 850, 4-((5-(1-(2-hydroxy-2-methylpropyl)-4-methyl-1H-indazol-5-yl)-2,6-naphthyridin-3-yl)amino)-N-(5-morpholinopyrimidin-2-yl)benzenesulfonamide]

IC50 [1, 5]: < 25 nM
IC50 [2, 23]: 25 to 250 nM
IC50 [3, 24]: 25 to 250 nM
IC50 [4, 20]: 25 to 250 nM
Structure (SMILES): Cc1c(-c2nccc3cnc(Nc4ccc(NS(=O)(=O)c5cnn(C)c5)cc4)cc23)ccc2c1cnn2CC(C)(C)O [Ex 835, N-(4-((5-(1-(2-hydroxy-2-methylpropyl)-4-methyl-1H-indazol-5-yl)-2,6-naphthyridin-3-yl)amino)phenyl)-1-methyl-1H-pyrazole-4-sulfonamide]

IC50 [1, 12]: < 25 nM
IC50 [2, 16]: 25 to 250 nM
IC50 [3, 17]: 25 to 250 nM
IC50 ([3]; x = IC50 <25 nM, read-out: CDK4/CCND IC50 (<25 nM)): < 25 nM
IC50 [4, 18]: 25 to 250 nM
Structure (SMILES): CC(C)S(=N)(=O)c1ccc(Nc2cc3c(C#Cc4ccc5c(c4)NC(=O)C5(C)C)nccc3cn2)cc1 (single isomer, unassigned) [Ex 455, 3,3-dimethyl-6-((7-((4-(propan-2-ylsulfonimidoyl)phenyl)amino)-2,6-naphthyridin-1-yl)ethynyl)indolin-2-one]

IC50 [1, 19]: 25 to 250 nM
IC50 [2, 13]: > 250 nM
IC50 [3, 14]: > 250 nM
IC50 [4, 15]: > 250 nM
Structure (SMILES): COc1cc(C#Cc2nccc3cnc(Nc4ccc(S(C)(=O)=O)cc4)cc23)c(F)cn1 [Ex 586, 5-((5-fluoro-2-methoxypyridin-4-yl)ethynyl)-N-(4-(methylsulfonyl)phenyl)-2,6-naphthyridin-3-amine]

IC50 ([1]; 25-250 nM, read-out: CDK2/CCNE IC50, 25-250 nM): 25 to 250 nM
IC50 [2, 6]: > 250 nM
IC50 [3, 7]: > 250 nM
IC50 [4, 8]: > 250 nM
Structure (SMILES): COc1nc(S(C)(=O)=O)ccc1Nc1cc2c(-c3ccc4c(cnn4CC(C)(C)O)c3C)nccc2cn1 [Ex 766, 1-(5-(7-((2-methoxy-6-(methylsulfonyl)pyridin-3-yl)amino)-2,6-naphthyridin-1-yl)-4-methyl-1H-indazol-1-yl)-2-methylpropan-2-ol]

Source: US20260325533A1, “CDK INHIBITOR COMPOUNDS” (ALEKSIA THERAPEUTICS, INC., priority 2023, published 2026)
